Measurements reported in patent publication US6177438A, “Morphinan derivatives and pharmaceutical use thereof” (priority 1993, dated 2001).
Structures can show the parent of a compound that is named as a salt. Where two headings read alike, the source gives them in different places.

Assays:
[1] = Diuretic action (urine output for 5 hours after physiological saline loading in rats); type: in vivo, male Wistar rats; details: Rattus norvegicus, sc, 5 hours after saline 20 ml/kg p.o.; for ED (200% urine output): dose giving urine output of 200 (non-dosed group = 100); for ED (500% urine output): dose giving urine output of 500 (non-dosed group = 100)
Description: 7-8 week old male Wistar rats were used in this test after prohibiting from drinking water for 1 hour before the start of testing. After discharging any urine accumulated in the bladder by gently stimulating the lower abdomens of the animals, the drug was administered subcutaneously. After 30 minutes, the animals were then forcibly given 20 ml/kg of physiological saline orally. The animals were placed in metabolic cages immediately after administration of the drug (2 animals/cage) and urine output for 5 hours after loading with physiological saline was measured. Drug efficacy was expressed in the form of those doses resulting in urine outputs of 200 and 500, respectively, when the urine output of a non-dosed group was taken to be 100. Those doses were expressed as the ED200 and ED500 values, respectively.

[2] = system: acetic acid-induced writhing in ddy mice; assay: animal or person; type: in vivo, 5 week old ddy mice; details: s.c. 15 minutes before acetic acid
Description: 5 week old ddy mice were used in this test. After intraperitoneal administration of 0.1 ml of 0.6% aqueous acetic acid per 10 g of body weight, the number of writhing reactions that occurred in 10 minutes starting 10 minutes after administration was evaluated for the indicator. The test drug was administered subcutaneously into the backs of the animals 15 minutes before administration of acetic acid.

[3] = Mus musculus, sc, read-out: ED50

Structure (SMILES) | ED50 [2, 3] | further results
CN(C(=O)Cc1ccc(Br)cc1)[C@H]1CC[C@@]2(O)[C@H]3Cc4ccc(O)c5c4[C@@]2(CCN3CC2CC2)[C@H]1O5 [Compound 28, 17-cyclopropylmethyl-3,14β-dihydroxy-4,5α-epoxy-6α-(N-methyl-4-bromophenylacetamido)morphinan.cndot.hydrobromide] | 0.071 mg/kg | ED (200% urine output) [1]: 0.02 mg/kg; ED (500% urine output) [1]: 3.8 mg/kg
CCC/C=C/C(=O)N(C)[C@H]1CC[C@@]2(O)[C@H]3Cc4ccc(O)c5c4[C@@]2(CCN3CC2CC2)[C@H]1O5 [Compound 95, 17-cyclopropylmethyl-3,14β-dihydroxy-4,5α-epoxy-6α-(N-methyl-trans-2-hexenamido)morphinan.cndot.tartrate] | 0.0081 mg/kg | ED (200% urine output) [1]: 0.0028 mg/kg; ED (500% urine output) [1]: 0.0968 mg/kg
CN(C(=O)CSc1ccccc1)[C@@H]1CC[C@@]2(O)[C@H]3Cc4ccc(O)c5c4[C@@]2(CCN3CC2CC2)[C@H]1O5 [Compound 65, 17-cyclopropylmethyl-3,14β-dihydroxy-4,5α-epoxy-6β-(N-methylthiophenoxyacetamido)morphinan.cndot.tartrate] | 0.15 mg/kg | ED (200% urine output) [1]: 0.119 mg/kg; ED (500% urine output) [1]: 5.31 mg/kg
CN(C(=O)CCC1CCCC1)[C@@H]1CC[C@@]2(O)[C@H]3Cc4ccc(O)c5c4[C@@]2(CCN3CC2CC2)[C@H]1O5 [Compound 64, 17-cyclopropylmethyl-3,14β-dihydroxy-4,5α-epoxy-6β-(N-methyl-3-cyclopentylpropionamido)morphinan.cndot.tartrate] | 0.097 mg/kg | 
Cc1ccc(/C=C/C(=O)N(C)[C@@H]2CC[C@@]3(O)[C@H]4Cc5ccc(O)c6c5[C@@]3(CCN4CC3CC3)[C@H]2O6)s1.O=C(O)C(O)C(O)C(=O)O (relative stereo) [Compound 160, 17-cyclopropylmethyl-3,14β-dihydroxy-4,5α-epoxy-6β-[N-methyl-trans-3-(5-methyl-2-thienyl)acrylamido]morphinan tartrate] |  | ED50 [2]: 0.0027 mg/kg
CN(C(=O)OCc1ccccc1)[C@H]1CC[C@@]2(O)[C@H]3Cc4cccc5c4[C@@]2(CCN3CC2CC2)[C@H]1O5 [Compound 74, 17-cyclopropylmethyl-14β-hydroxy-4,5α-epoxy-6α-(N-methylbenzyloxycarbamido)morphinan.cndot.phosphate] | 0.78 mg/kg | 
CN([C@H]1CC[C@@]2(O)[C@H]3Cc4ccc(O)c5c4[C@@]2(CCN3CC2CC2)[C@H]1O5)S(=O)(=O)Cc1ccc(Cl)c(Cl)c1 [Compound 128, 17-cyclopropylmethyl-4,5α-epoxy-3,14β-dihydroxy-6α-(N-methyl-3,4-dichlorophenylmethanesulfonamido)morphinan.cndot.tartrate] | 0.63 mg/kg | 
Cc1ccc(/C=C/C(=O)N(C)[C@@H]2CC[C@@]3(O)[C@H]4Cc5ccc(O)c6c5[C@@]3(CCN4CC3CC3)[C@H]2O6)o1.Cl (relative stereo) [Compound 158, 17-cyclopropylmethyl-3,14β-dihydroxy-4,5α-epoxy-6β-[N-methyl-trans-3-(5-methyl-2-furyl)acrylamido]morphinan hydrochloride] | 0.0071 mg/kg | 
CN(C(=O)/C=C/c1ccccc1C(F)(F)F)[C@@H]1CC[C@@]2(O)[C@H]3Cc4ccc(O)c5c4[C@@]2(CCN3CC2CC2)[C@H]1O5 [Compound 72, 17-cyclopropylmethyl-3,14β-dihydroxy-4,5α-epoxy-6β-(N-methyl-2-trifluoromethylcinnamamido)morphinan.cndot.hydrochloride] | 0.18 mg/kg | 
CN(C(=O)CCC1CCCC1)[C@H]1CC[C@@]2(O)[C@H]3Cc4ccc(O)c5c4[C@@]2(CCN3CC2CC2)[C@H]1O5 [Compound 48, 17-cyclopropylmethyl-4,5α-epoxy-3,14β-dihydroxy-6α-(N-methyl-3-cyclopentylpropionamido)morphinan.cndot.tartrate] | 0.019 mg/kg | 
Cc1ccc(C#CC(=O)N(C)[C@H]2CC[C@@]3(O)[C@H]4Cc5ccc(O)c6c5[C@@]3(CCN4CC3CC3)[C@H]2O6)cc1.Cl [Compound 183, 17-cyclopropylmethyl-3,14β-dihydroxy-4,5α-epoxy-6α-[N-methyl-3-(4-methylphenyl)propiolamido]morphinan hydrochloride] | 0.013 mg/kg | 
CN(C(=O)C#Cc1ccco1)[C@H]1CC[C@@]2(O)[C@H]3Cc4ccc(O)c5c4[C@@]2(CCN3CC2CC2)[C@H]1O5.O=C(O)C(O)C(O)C(=O)O [Compound 186, 17-cyclopropylmethyl-3,14β-dihydroxy-4,5α-epoxy-6α-[N-methyl-3-(2-furyl)propiolamido]morphinan tartrate] | 0.0061 mg/kg | 
CN(C(=O)CCC1CCCCC1)[C@H]1CC[C@@]2(O)[C@H]3Cc4ccc(O)c5c4[C@@]2(CCN3CC2CC2)[C@H]1O5 [Compound 94, 17-cyclopropylmethyl-3,14β-dihydroxy-4,5α-epoxy-6α-(N-methyl-3-cyclohexylpropionamido)morphinan.cndot.hydrochloride] | 0.013 mg/kg | 
CN(C(=O)Cc1cccc(N)c1)[C@H]1CC[C@@]2(O)[C@H]3Cc4ccc(O)c5c4[C@@]2(CCN3CC2CC2)[C@H]1O5 [Compound 138, 17-Cyclopropylmethyl-3,14β-dihydroxy-4,5α-epoxy-6α-(N-methyl-3-aminophenylacetamido)morphinan.cndot.1.1 tartrate] | 0.014 mg/kg | 
CCCCN1CC[C@]23c4c5ccc(O)c4O[C@H]2[C@H](N(C)C(=O)/C=C/c2ccoc2)CC[C@@]3(O)[C@H]1C5.O=C(O)C(O)C(O)C(=O)O (relative stereo) [Compound 163, 17-butyl-3,14β-dihydroxy-4,5α-epoxy-6β-[N-methyl-trans-3-(3-furyl)acrylamido]morphinan tartrate] | 0.37 mg/kg | 
CN(C(=O)C#Cc1ccco1)[C@@H]1CC[C@@]2(O)[C@H]3Cc4ccc(O)c5c4[C@@]2(CCN3CC2CC2)[C@H]1O5.Cl [Compound 175, 17-cyclopropylmethyl-3,14β-dihydroxy-4,5α-epoxy-6β-[N-methyl-3-(2-furyl)propiolamido]morphinan hydrochloride] | 0.018 mg/kg | 
CC(=O)O[C@@]12CC[C@@H](N(C)C(=O)/C=C/c3ccccc3)[C@@H]3Oc4c(O)ccc5c4[C@@]31CCN(CC1CC1)[C@@H]2C5 [Compound 144, 17-Cyclopropylmethyl-3-hydroxy-14β-acetoxy-4,5α-epoxy-6β-(N-methylcinnamamido)morphinan.cndot.tartrate] | 0.024 mg/kg | 
COc1ccc(C#CC(=O)N(C)[C@@H]2CC[C@@]3(O)[C@H]4Cc5ccc(O)c6c5[C@@]3(CCN4CC3CC3)[C@H]2O6)cc1.Cl [Compound 176, 17-cyclopropylmethyl-3,14β-dihydroxy-4,5α-epoxy-6β-[N-methyl-3-(4-methoxyphenyl)propiolamido]morphinan hydrochloride] | 0.11 mg/kg | 
Cc1ccc(/C=C/C(=O)N(C)[C@@H]2CC[C@@]3(O)[C@H]4Cc5ccc(O)c6c5[C@@]3(CCN4CC3CC3)[C@H]2O6)cc1 [Compound 155, 17-cyclopropylmethyl-3,14β-dihydroxy-4,5α-epoxy-6β-(N-methyl-4-methylcinnamamido)morphinan hydrochloride] | 0.012 mg/kg | 
CN(C(=O)Cc1ccc([N+](=O)[O-])cc1)[C@H]1CC[C@@]2(O)[C@H]3Cc4ccc(O)c5c4[C@@]2(CCN3CC2CC2)[C@H]1O5 [Compound 87, 17-cyclopropylmethyl-3,14β-dihydroxy-4,5α-epoxy-6α-(N-methyl-4-nitrophenylacetamido)morphinan.cndot.hydrochloride] | 0.027 mg/kg | 
CC(=O)Oc1ccc2c3c1O[C@H]1[C@@H](N(C)C(=O)Cc4ccc(Cl)c(Cl)c4)CC[C@@]4(O)[C@@H](C2)N(CC2CC2)CC[C@]314 [Compound 139, 17-Cyclopropylmethyl-3-acetoxy-4,5α-epoxy-14β-hydroxy-6α-(N-methyl-3,4-dichlorophenylacetamido)morphinan.cndot.hydrochloride] | 0.04 mg/kg | 
CN(C(=O)/C=C/c1ccoc1)[C@@H]1CC[C@@]2(O)[C@H]3Cc4cccc5c4[C@@]2(CCN3CC2CC2)[C@H]1O5 [Compound 204, 17-cyclopropylmethyl-4,5α-epoxy-14-hydroxy-6β-[N-methyl-trans-3-(3-furan)acrylamido]morphinan hydrochloride] | 0.013 mg/kg | 
CN(C(=O)OCc1cccnc1)[C@H]1CC[C@@]2(O)[C@H]3Cc4ccc(O)c5c4[C@@]2(CCN3CC2CC2)[C@H]1O5 [Compound 44, 17-cyclopropylmethyl-4,5α-epoxy-3,14β-dihydroxy-6α-[N-methyl-(3-pyridyl)methyloxycarbamido]morphinan.cndot.tartrate] | 0.084 mg/kg | 
COc1ccc(C#CC(=O)N(C)[C@H]2CC[C@@]3(O)[C@H]4Cc5ccc(O)c6c5[C@@]3(CCN4CC3CC3)[C@H]2O6)cc1.O=C(O)C(O)C(O)C(=O)O [Compound 187, 17-cyclopropylmethyl-3,14β-dihydroxy-4,5α-epoxy-6α-[N-methyl-3-(4-methoxyphenyl)propiolamido]morphinan tartrate] | 0.026 mg/kg | 
COCCOC(=O)N(C)[C@H]1CC[C@@]2(O)[C@H]3Cc4ccc(O)c5c4[C@@]2(CCN3CC2CC2)[C@H]1O5 [Compound 49, 17-cyclopropylmethyl-4,5α-epoxy-3,14β-dihydroxy-6α-(N-methyl-2-methoxyethoxycarbamido)morphinan.cndot.tartrate] | 0.026 mg/kg | 
